Data as given in patent publication US20260199902A1, “SYSTEM AND APPARATUS FOR THE HAND-HELD AMPLIFICATION AND DETECTION OF NUCLEIC ACIDS” (Darwin Biosciences, Inc., priority 2022, published 2026).
Counter-ions that a name gives are not always drawn.

Tests used:
RT-RPA reactions = test: RT-RPA interference (compatibility) testing of lysis and RNase inhibitor reagents, agarose gel; assay type: biochemical; set-up: key: Pass (green) indicates that reagents did not interfere with RT-RPA; Partial Pass: Partial pass (yellow) indicates that reagents had partial interference in RT-RPA; Fail (red) indicates reagents completely interfered with RT-RPA reactions
Description: FIG. 28. Reagent interference testing in RT-RPA. Lysis and RNase inhibitor reagents tested in RT-RPA using cDNA and RNA templates. RT-RPA reactions were prepared with varying concentrations of reagents, as labeled above (final concentrations in a 20 μl RT-RPA reaction are reported). Amplification products were run on a 2% agarose gel and band intensities were compared to control (No added reagent) reactions. Reactions labeled in red contain no reverse transcriptase. The expected size of the CXCL8 amplicon is indicated to the left of the gel. GuHCI=Guanidine hydrochloride, Triton=Triton X-100.
Reagents under consideration for the device were tested for compatibility with RT-RPA at the concentrations expected to be required for lysis. To test for interference, lysis or RNase inhibitor reagents were spiked into RT-RPA reactions with purified cell line RNA or cDNA as a template. Reactions were analyzed by agarose gel for the presence or absence of amplified products. […]

RT-RPA reaction = test: RT-RPA efficiency in the presence of Buffer 20 and Buffer 21; assay type: biochemical; conditions: 100 mM
Description: FIG. 7. Evaluation of optimized sample treatment and lysis buffer components. (A) RT-RPA efficiency in the presence of Buffer 20 and Buffer 21, using cell line RNA as (+) template and (−) no template control. (B) Optimized early/pre-infection diagnostic sample treatment and lysis tested on 5 individuals. −RT=no reverse transcriptase was included in the RT-RPA reaction, +RT=Superscript IV was added to the RPA reaction at a final concentration of 1 U/μl.
We therefore modified the lysis buffer formulation to Buffer 21 (5 mM TCEP-HCl, 7.5% Tween-20, 0.00167% Digitonin), which removed the guanidine hydrochloride and RNase Inhibitor. […] The present inventors lyophilized Buffer 21 into the selected lysis pad material and processed saliva from five donors through the device (FIG. 7B). This processing included expression of the sample from a collection pad, which pushed the sample through the lysis pad embedded with Buffer 21 and 4 U/μl of mRI, followed by the 10 μm filter, 100 mg of Chelex-100, and 1 μm filter. The resulting sample was used to reconstitute RPA reagents (Twist rehydration buffer and Twist enzymes), and reverse transcriptase and modified RPA primers were added to the reaction.

[1] = test system: primer dimers in multiplexed RT-RPA; test: Betaine as additive in multiplexed RT-RPA; assay type: biochemical; conditions: preliminary experiments
Excerpt: A challenge of multiplexed RT-RPA is an increased tendency to form primer dimers that impact the readout on a lateral flow strip. We have explored the use of betaine as an additive to reduce the occurrence of primer dimers. Betaine can prevent the formation of primer dimers in isothermal amplification by effectively lowering the melting temperature of an oligo sequence. […] Thus, betaine may be an effective additive to reduce primer dimers in RT-RPA reactions in certain embodiments.

saliva RNases = test: RNase activity assay: cell line RNA incubated with treated saliva, read on Agilent TapeStation; assay type: biochemical, human; set-up: key: Pass (green) indicating sufficient RNase inactivation; Partial Pass (yellow) indicating partial RNase inactivation; Fail (red) indicating incomplete RNase inactivation
Description: FIG. 27. Example of saliva RNase activity assays assayed on TapeStation High Sensitivity RNA ScreenTapes (5067; Agilent). Results from three independent assays are shown. Lanes 1-3 (left to right) are experimental controls including 500 μg RNA in RNase free water, untreated saliva without added cell line RNA, and untreated saliva incubated with cell line RNA. Lanes labeled “Incomplete RNase Inactivation” contain no ribosomal RNA bands, indicating RNase activity is present. Lanes labeled “Sufficient RNase Inactivation” contain sharp ribosomal bands (similar to RNA in water), indicating RNases have been inactivated. gDNA=genomic DNA.
(§1) To screen for chemical and protein-based reagents that inhibit saliva RNases, we developed an RNase activity assay in which purified cell line RNA was incubated for 30 min at 37° C. with saliva samples after treatment with potential reagents for RNase inhibition (FIG. 2.5.3). After incubation, RNA was purified and analyzed on an Agilent TapeStation. Sharpness of the eukaryotic ribosomal RNA bands (28S and 18S) were compared to determine RNase activity in the presence of various inhibitors. In addition, the Agilent TapeStation calculates an RNA Integrity Score (RIN) as a measure of RNA quality (RIN of 10-fully intact RNA, RIN of 1=fully degraded RNA), however contaminating nucleic acid (e.g., 16S and 23S rRNA from bacteria) interferes with this calculation.
as §1, with “10=fully” for “10-fully”, “calculation. In total, 54 unique reagents, concentrations, and buffer formulations were tested for their ability to inactivate RNases.” for “calculation.”

[2] = 100 mM final in RT-RPA reaction

IGEPAL
Compatibility in RT-RPA, Result (RT-RPA reactions; 0.01%-0.25% final in RT-RPA reaction): Partial Pass

O=C(O)CN(CCN(CC(=O)O)CC(=O)O)CC(=O)O [EDTA]
Compatibility in RT-RPA, Result (RT-RPA reactions; 2 mM final in RT-RPA reaction): Pass
Compatibility in RT-RPA, Result (RT-RPA reactions; 6 mM final in RT-RPA reaction): Partial Pass
Compatibility in RT-RPA, Result (RT-RPA reactions; 18 mM final in RT-RPA reaction): Fail

Cl.N=C(N)N [GuHCl, Guanidine hydrochloride]
Effect on RT-RPA reaction efficiency (RT-RPA reaction): reduces the overall efficiency of the RT-RPA reaction
Compatibility in RT-RPA, Result (RT-RPA reactions; [2]): Pass
Compatibility in RT-RPA, Result (RT-RPA reactions; 200 mM final in RT-RPA reaction): Fail

CCCCCCCCCCCC(=O)N(C)CC(=O)[O-].[Na+] [sarkosyl]
Compatibility in RT-RPA, Result (RT-RPA reactions; 0.01% final in RT-RPA reaction): Partial Pass
Compatibility in RT-RPA, Result (RT-RPA reactions; 0.1% final in RT-RPA reaction): Fail

C[N+](C)(C)CC(=O)O [betaine]
Primer noise [1]: can reduce primer noise in multiplexed RT-RPA reactions

O=C(O)CCP(CCC(=O)O)CCC(=O)O [TCEP-neutral]
Inactivation of saliva RNases, Result (saliva RNases; 5 mM and 50 mM): Fail

N#CS.N=C(N)N [GTC]
Compatibility in RT-RPA, Result (RT-RPA reactions; [2]): Fail

OCCS [beta-mercaptoethanol]
Inactivation of saliva RNases, Result (saliva RNases; 143 mM): Fail

Cl.O=C(O)CCP(CCC(=O)O)CCC(=O)O [TCEP-HCl]
Compatibility in RT-RPA, Result (RT-RPA reactions; 5 mM final in RT-RPA reaction): Partial Pass
Compatibility in RT-RPA, Result (RT-RPA reactions; 10 mM final in RT-RPA reaction): Fail
Inactivation of saliva RNases, Result (saliva RNases; 5 mM and 12.5 mM): Fail
Inactivation of saliva RNases, Result (saliva RNases; 50 mM): Pass

CCCCCCCCCCCCOS(=O)(=O)[O-].[Na+] [SDS, sodium dodecyl sulfate]
Compatibility in RT-RPA, Result (RT-RPA reactions; 0.005% final in RT-RPA reaction): Fail

C[C@@H]1CC[C@@]2(OC1)O[C@H]1[C@@H](O)[C@H]3[C@@H]4CC[C@H]5C[C@@H](O[C@@H]6O[C@H](CO)[C@H](O[C@@H]7O[C@H](CO)[C@@H](O)[C@H](O[C@@H]8OC[C@@H](O)[C@H](O)[C@H]8O)[C@H]7O[C@@H]7O[C@H](CO)[C@H](O)[C@H](O[C@@H]8O[C@H](CO)[C@@H](O)[C@H](O)[C@H]8O)[C@H]7O)[C@H](O)[C@H]6O)[C@H](O)C[C@]5(C)[C@H]4CC[C@]3(C)[C@H]1[C@@H]2C [digitonin]
Compatibility in RT-RPA, Result (RT-RPA reactions; 1% final in RT-RPA reaction): Pass

Triton X-100
Compatibility in RT-RPA, Result (RT-RPA reactions; 1% final in RT-RPA reaction): Pass
Compatibility in RT-RPA, Result (RT-RPA reactions; 5%-10% final in RT-RPA reaction): Partial Pass

O[C@@H](CS)[C@@H](O)CS [DTT]
Inactivation of saliva RNases, Result (saliva RNases; 10 mM): Fail

Cl [HCl, Hydrochloric acid]
Compatibility in RT-RPA, Result (RT-RPA reactions; 5 mM final in RT-RPA reaction): Pass
